Data as given in US20160310584A1, “FORMULATIONS FOR NEOPLASIA VACCINES” (THE BROAD INSTITUTE INC., priority 2013, published 2016).
Like-named read-outs stand apart in the source and are kept apart here. Where a SMILES comes first, the peptide text is derived from it. Where no end group is shown, it is not given here.

Columns and labels:
Format in all cases: physicochemical
[1] = Peptide solubility evaluation: dissolution in DMSO, dilution in D5W with or without succinate
Experimental: (§1) In a representative procedure, peptides were weighed and corrected for % peptide content, and then dissolved in DMSO to a concentration of 50 mg/mL. The DMSO/Peptide solution was then diluted with 5 mM sodium succinate in D5W to a 2 mg/mL peptide concentration.
Additional peptide solubility conditions were tested. Peptides CS6709, CS6712, CS6720, CS6726, and CS6783 were weighed at approximately 10 mg each. The peptides were then dissolved in approximately 200 μL USP grade DMSO to obtain a 50 mg/mL concentration for each peptide. […] Additional 50 μL increments of DMSO were added to Peptide CS6709 up to 400 μL; for a total of 600 μL of DMSO.
Based on gross weight and peptide content, 15 mg (net weight) or slightly more of each individual peptide are weighed and 100% USP Grade DMSO […] is added to achieve a final peptide concentration of 50 mg/ml.

pH of peptide solutions = assay: pH of peptide solutions
Experimental: as §1

[2] = Dissolution of peptide in D5W without using DMSO; details: small amount of peptide (<1 mg)
[3] = Freeze/thaw and frozen storage stability (RP-HPLC, pH, visual inspection); details: −20° C. stability study
Experimental: Two individual peptides were dissolved in DMSO/D5W and placed on stability at two temperatures (−20° C. and −80° C.). These peptides were evaluated (RP-HPLC and pH and visual inspection) for up to 24 weeks. […] Any small changes appear to be due to assay variability as no trends were noted to be evaluated.
A peptide pool (Pool 4) consisting of five peptides was prepared by dissolution in DMSO, dilution with D5W/Succinate (5 mM) to 2 mg/ml and pooling to a final peptide concentration of 400 μg per ml and a final DMSO concentration of 4%. After preparation, peptides were filtered with a 25 mm Pall PES filter (Cat #4612) and dispensed into Nunc Cryo vials (#375418) in one ml aliquots. Samples were analyzed at time zero and at 2 and 4 weeks to date. Additional samples are analyzed at 8 and 24 weeks.

[4] = DMSO/D5W, Table 4, Y/N, diluted to 2 mg/ml, read-out: Solubility In DMSO/D5W
[5] = DMSO/D5W/succinate, Table 4, Y/N, read-out: Solubility in DMSO/D5W/Succinate
[6] = Table 4, Y/N, diluted to 2 mg/ml, read-out: Solubility In DMSO/D5W
[7] = Table 4, symbol X not defined, peptides dissolved at 50 mg/ml in 100% DMSO, read-out: Solubility in DMSO

Row | Compound | solubility [1, 4] [µg/mL] | pH of peptides in DMSO/D5W/5 mM S. Succinate spike (pH of peptide solutions) | pH of peptides in DMSO/D5W/5 mM Succinate and Hiltonol (pH of peptide solutions) | also measured
1 | CC[C@H](C)[C@H](NC(=O)[C@H](CS)NC(=O)[C@H](CC(C)C)NC(=O)[C@@H](N)CC(=O)O)C(=O)N[C@@H](CS)C(=O)N1CCC[C@H]1C(=O)N[C@@H](CCCNC(=N)N)C(=O)N[C@@H](CO)C(=O)N[C@@H](Cc1c[nH]cn1)C(=O)N[C@@H](CCCNC(=N)N)C(=O)NCC(=O)N[C@@H](C)C(=O)N[C@@H](Cc1ccccc1)C(=O)N[C@@H](CCC(N)=O)C(=O)N[C@@H](CC(C)C)C(=O)N[C@@H](CC(C)C)C(=O)N1CCC[C@H]1C(=O)N[C@@H](CO)C(=O)N[C@@H](C)C(=O)N[C@@H](CC(C)C)C(=O)N[C@@H](CC(C)C)C(=O)N[C@H](C(=O)N[C@@H](CCCNC(=N)N)C(=O)N[C@H](C(=O)N[C@@H](CC(C)C)C(=O)N[C@@H](CCC(=O)O)C(=O)NCC(=O)N[C@@H](CO)C(=O)N[C@@H](CC(=O)O)C(=O)N[C@@H](CO)C(=O)O)C(C)C)C(C)C [CS6932] (H-DLCICPRSHRGAFQLLPSALLVRVLEGSDS-OH) | > 2000 |  |  | 
2 | H-AESAQRQGPLGGGEQSANEF-OH [CS7417] |  | 6.28 | 6.5 | solubility [1]: > 2000 µg/mL; solubility [1, 5]: > 2000 µg/mL
3 | H-AESAQRQGPNGGGEQSANEF-OH [CS7416] |  | 6.31 | 6.54 | 
4 | H-AHRQGEKQHLLPVFSRLALRLPWRHSVQL-OH [CS6941] |  | 6.49 | 6.78 | 
5 | H-ALSLTPGLRIGPSGLFLVFLAESAVDKGHPNRS-OH [CS7410] |  | 6.46 | 6.88 | 
6 | H-APALGPGAASVASRCGLDPALAPGGSHMLRA-OH [CS6927] | > 2000 |  |  | 
7 | H-DASDFLPDTQLFPHFTELLLPLDPLEGSSV-OH [CS6935] | < 2000 |  |  | 
8 | H-DMAWRRNSRLYWLIKMVEQWQEQHLPSLSS-OH [CS6943] | > 2000 |  |  | 
9 | H-DSAVDKGHPNRSALSLTPGLRIGPSGIPQAGLG-OH [CS6726] | > 2000 |  |  | Dissolution directly in D5W without using DMSO [2]: could be dissolved
10 | H-DSAVDKGHPNRSALSLTPGLRIGPSGLFLVFLA-OH [CS7411] |  | 6.53 | 6.94 | 
11 | H-EDLHLLSVPCPSYKKLPLLIFPSHRRAPLLSA-OH [CS6918] |  |  |  | solubility [1, 6]: > 2000 µg/mL
12 | H-EEGLLPEVFGAGVPLALCPAVPSAAKPHRPRVL-OH [CS6933] | > 2000 |  |  | 
13 | H-EPDQEAVQSSTYKDCNTLHLPTERFSPVR-OH [CS6710] | > 2000 |  |  | 
14 | H-FRLIWRSVKNGKSSREQELSWNCSHQVPSLGA-OH [CS6917] | > 2000 |  |  | 
15 | H-GASRRSSASQGAGSLGLSEEKTLRSGGGP-OH [CS6781] | > 2000 |  |  | 
16 | H-GKSRGQQAQDRARHAAGAAPARPLGALREQ-OH [CS6938] | > 2000 |  |  | 
17 | H-GLLSDGSGLGQITWASAEHLQRPGAGAELA-OH [CS6914] | > 2000 |  |  | 
18 | H-GTKALQLHSIAGRWPRMEPWVVESMSLGVP-OH [CS7415] |  | 6.61 | 6.81 | 
19 | H-GTYLQGTASALSQSQERPPSVNRVPPSSPSSQE-OH [CS6725] | > 2000 |  |  | 
20 | H-IGALNPKRAAFFAEHYESWE-OH [CS7420] |  | 6.38 | 6.56 | solubility [1]: > 2000 µg/mL
21 | H-KKEKAEKLEKERQRHISKPLLGGPFSLTTHTGE-OH [CS6718] | > 2000 |  |  | 
22 | H-KKNITNLSRLVVRPDTDAVY-OH [CS7431] |  | 6.45 | 6.69 | 
23 | H-KLAWRGRISSSGCPSMTSPPSPMFGMTLHT-OH [CS6919] |  | 6.74 | 6.99 | Heterodimer formation (mass spectrometry) [3]: can form a heterodimer
24 | H-KPKKVAGAATPKKSIKRTPKKVKKPATAAGTKK-OH [CS6717] | > 2000 |  |  | 
25 | H-LAASGLHGSAWLVPGEQPVSGPHHGKQPAGV-OH [CS6930] | > 2000 |  |  | 
26 | H-LKDSNSWPPSNKRGFDTEDAHKSNATPVP-OH [CS6712] |  |  |  | Dissolution directly in D5W without using DMSO [2]: could be dissolved
27 | H-LLTDRNTSGTTFTLLGVSDYPELQVP-OH [CS7409] |  | 6.32 | 6.62 | solubility [1]: > 2000 µg/mL; solubility [1, 5]: > 2000 µg/mL

Row | Compound | solubility [1, 4] [µg/mL] | pH of peptides in DMSO/D5W/5 mM S. Succinate spike (pH of peptide solutions) | pH of peptides in DMSO/D5W/5 mM Succinate and Hiltonol (pH of peptide solutions) | also measured
28 | H-LLTDRNTSGTTFTLLGVSDYPELQVPIPQAGLG-OH [CS7408] |  | 6.31 | 6.75 | solubility [1]: > 2000 µg/mL; solubility [1, 5]: > 2000 µg/mL
29 | H-LPVFIGNIAVNHAPVSLRPGLGLPPGAPPGTVP-OH [CS7438] |  | 6.78 | 6.96 | 
30 | H-LPVFIGNIAVNHAPVSLRPGLGLPPGAPPLVVP-OH [CS6730] | > 2000 |  |  | 
31 | H-LRVFIGNIAVNHAPVSLRPGLGLPPGAPPGTVP-OH [CS7412] |  | 6.61 | 6.96 | solubility [1]: > 2000 µg/mL
32 | H-LSVPFTCGVNFGDSIEDLEI-OH [CS7428] | < 2000 |  |  | 
33 | H-LTDLPGRIRVAPQQNDLDSPQQISISNAE-OH [CS6709] |  |  |  | solubility [1, 7]: < 50000 µg/mL; Dissolution directly in D5W without using DMSO [2]: could be dissolved
34 | H-PIERVKKNLLKKEYNVSDDSMKLGGNNTSEKAD-OH [CS6721] | > 2000 |  |  | 
35 | H-PIQVFYTKQPQNDYLHVALVSVFQIHQEAPSSQ-OH [CS6729] | > 2000 |  |  | 
36 | H-PLMQTELHQLVPEADPEEMA-OH [CS7430] |  | 6.23 | 6.37 | 
37 | H-PPYPYSSPSLVLPTEPHTPKSLQQPGLPS-OH [CS6715] | > 2000 |  |  | 
38 | H-PQLAGGGGSGAPGEHPLLPGGAPLPAGLF-OH [CS6716] | > 2000 |  |  | 
39 | H-RGLHSQGLGRGRIAMAQTAGVLRSLEQEE-OH [CS6711] | > 2000 |  |  | 
40 | H-SGQPAPEETVLFLGLLHGLLLILRRLRGG-OH [CS6937] |  | 6.51 | 6.76 | solubility [1]: > 2000 µg/mL
41 | H-SHVEKAHITAESAQRQGPNGGGEQSANEF-OH [CS6708] | > 2000 |  |  | 
42 | H-SKLPYPVAKSGKRALARGPAPTEKTPHSGAQLG-OH [CS6719] | > 2000 |  |  | 
43 | H-SKRGVGAKTLLLPDPFLFWPCLEGTRRSL-OH [CS6934] |  | 6.57 | 6.79 | Heterodimer formation (mass spectrometry) [3]: can form a heterodimer
44 | H-SPTEPSTKLPGFDSCGNTEIAERKIKRIYGGFK-OH [CS6720] | > 2000 |  |  | Dissolution directly in D5W without using DMSO [2]: could be dissolved
45 | H-SYDSVIRELLQKPNVRVVVL-OH [CS7425] | > 2000 | 6.44 | 6.65 | solubility [1, 5]: < 2000 µg/mL; solubility [1, 7]: < 50000 µg/mL
46 | H-SYKKLPLLIFPSHRRAPLLSATGDRGFSV-OH [CS6936] |  |  |  | solubility [1, 6]: > 2000 µg/mL
47 | H-VAGLAASGLHGSAWLVPGEQPVSGPHHGKQ-OH [CS6931] |  | 6.42 | 6.66 | 
48 | H-VEQGHVRVGPDVVTHPAFLV-OH [CS7427] |  | 6.34 | 6.52 | 
49 | H-VQLSIQDVIRRARLSTVPTAQRVALRSGWI-OH [CS7413] |  | 6.73 | 7.02 | 
50 | H-VSWGKKVQPIDSILADWNEDIEAFEMMEKD-OH [CS6942] | < 2000 |  |  | 
51 | H-WDGPPENDMLLKEICGSLIP-OH [CS7432] |  | 6.22 | 6.45 | 
52 | H-YLLPKTAVVLRCPALRVRKP-OH [CS7418] |  | 6.76 | 6.96 | 
53 | KGASLDAGWGSPRWTTTRMTSASAGRSTRA [CS7414] |  | 6.71 | 6.99 | Solubility in DMSO/D5W/Succinate [1]: Y
